Consider 3 substances from US10336803B2, “Insulin secreting polypeptides” (Mayo Foundation for Medical Education and Research, priority 2013, dated 2019).

For one experiment, the system named is normal dogs. Nature of the experiment: Chimeric polypeptide intravenous infusion in normal dogs: blood glucose, plasma insulin, plasma cGMP. It counts as in vivo, dog. The note with it: normal dogs (n=2), intravenous infusion 10 or 100 pmol/kg/minute for 45 minutes; for plasma insulin: versus base line (FIG. 7); for plasma glucose: versus base line (FIG. 8); for plasma cGMP: versus base line (FIG. 9).

The target in experiment [1] is T1, GC-A particulate guanylate cyclase receptors (Homo sapiens, UniProt P16066).
T1 construct: expressed in transfected cells; host or cells: HEK293
T1 sequence (P16066 33-1061): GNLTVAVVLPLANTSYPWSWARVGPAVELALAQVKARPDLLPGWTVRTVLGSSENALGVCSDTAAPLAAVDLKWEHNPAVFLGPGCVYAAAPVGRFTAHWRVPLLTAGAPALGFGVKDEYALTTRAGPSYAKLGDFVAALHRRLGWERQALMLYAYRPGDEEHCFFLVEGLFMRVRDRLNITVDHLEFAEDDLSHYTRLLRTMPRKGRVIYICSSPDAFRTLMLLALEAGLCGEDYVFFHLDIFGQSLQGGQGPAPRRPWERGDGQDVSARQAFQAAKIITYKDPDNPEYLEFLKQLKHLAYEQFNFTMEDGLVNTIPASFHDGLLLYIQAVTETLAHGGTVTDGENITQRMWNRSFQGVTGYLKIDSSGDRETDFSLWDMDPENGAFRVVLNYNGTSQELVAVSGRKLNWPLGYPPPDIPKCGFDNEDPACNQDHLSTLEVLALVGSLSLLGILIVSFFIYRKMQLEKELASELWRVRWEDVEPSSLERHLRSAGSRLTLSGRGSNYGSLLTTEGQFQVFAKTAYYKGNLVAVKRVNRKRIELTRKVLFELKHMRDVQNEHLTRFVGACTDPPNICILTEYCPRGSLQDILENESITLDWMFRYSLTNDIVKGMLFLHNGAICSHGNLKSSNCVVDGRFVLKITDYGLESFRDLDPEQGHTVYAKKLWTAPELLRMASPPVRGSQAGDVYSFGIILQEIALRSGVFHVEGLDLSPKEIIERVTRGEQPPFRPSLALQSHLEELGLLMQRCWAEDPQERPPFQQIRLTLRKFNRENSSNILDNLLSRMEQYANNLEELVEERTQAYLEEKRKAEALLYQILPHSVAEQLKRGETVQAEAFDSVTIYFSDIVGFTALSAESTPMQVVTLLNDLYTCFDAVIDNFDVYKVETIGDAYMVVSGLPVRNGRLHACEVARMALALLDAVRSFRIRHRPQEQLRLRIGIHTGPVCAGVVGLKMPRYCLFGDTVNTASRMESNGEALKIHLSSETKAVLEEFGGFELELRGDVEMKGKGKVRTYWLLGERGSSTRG
Description: Cell cGMP assay in HEK293 cells stably transfected with GC-A. Format: cell-based. The note with it: 10^−10 M, 10^−8M, or 10^−6M polypeptide for 10 minutes (FIGS. 14, 15).

Experiment [2] deals with T2, GC-B particulate guanylate cyclase receptors (Homo sapiens, UniProt P20594).
T2 construct: expressed in transfected cells; host or cells: HEK293
T2 sequence (P20594 23-1047): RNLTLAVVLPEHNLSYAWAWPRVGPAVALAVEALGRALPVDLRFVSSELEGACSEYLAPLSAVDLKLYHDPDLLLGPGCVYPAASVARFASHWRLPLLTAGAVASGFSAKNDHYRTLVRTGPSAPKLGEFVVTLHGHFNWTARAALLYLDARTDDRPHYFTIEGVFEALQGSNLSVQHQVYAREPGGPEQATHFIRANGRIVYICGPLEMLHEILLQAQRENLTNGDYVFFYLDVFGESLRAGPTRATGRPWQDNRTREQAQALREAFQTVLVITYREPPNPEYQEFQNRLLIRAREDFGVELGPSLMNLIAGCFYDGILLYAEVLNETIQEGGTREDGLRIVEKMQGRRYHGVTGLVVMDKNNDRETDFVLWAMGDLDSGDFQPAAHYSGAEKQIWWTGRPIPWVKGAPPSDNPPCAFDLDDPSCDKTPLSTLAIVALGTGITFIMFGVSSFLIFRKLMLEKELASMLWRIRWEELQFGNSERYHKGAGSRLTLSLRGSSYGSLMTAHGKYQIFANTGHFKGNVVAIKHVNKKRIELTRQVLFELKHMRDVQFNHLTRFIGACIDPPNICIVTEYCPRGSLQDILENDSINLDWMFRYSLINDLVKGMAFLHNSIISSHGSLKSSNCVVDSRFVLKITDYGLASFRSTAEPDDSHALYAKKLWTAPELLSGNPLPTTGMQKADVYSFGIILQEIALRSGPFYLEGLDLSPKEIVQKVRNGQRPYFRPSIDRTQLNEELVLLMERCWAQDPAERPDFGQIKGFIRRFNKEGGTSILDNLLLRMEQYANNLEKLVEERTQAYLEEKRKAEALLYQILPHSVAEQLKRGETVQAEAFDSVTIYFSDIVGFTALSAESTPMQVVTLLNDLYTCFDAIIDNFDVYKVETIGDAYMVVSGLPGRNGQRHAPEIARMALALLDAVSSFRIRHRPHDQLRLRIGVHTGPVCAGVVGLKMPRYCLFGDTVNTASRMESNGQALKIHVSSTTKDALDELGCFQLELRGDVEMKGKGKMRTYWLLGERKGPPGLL
Nature of the experiment: Cell cGMP assay in HEK293 cells stably transfected with GC-B. Format: cell-based. The conditions noted are these: 10^−10 M, 10^−8M, or 10^−6M polypeptide for 10 minutes (FIGS. 14, 15).

Another experiment concerns diabetic rats. Nature of the experiment: Chronic CRRL-094 ISP-NP subcutaneous pump treatment of diabetic rats. It counts as in vivo, male Wistar rats. The conditions noted are these: ALZET pumps subcutaneously 1 pmol/kg/minute. From the text:
Three groups of male Wistar rats were used: (1) normal non-diabetic control rats, (2) diabetic control rats, and (3) diabetic rats treated with CRRL-094 ISP-NP. Two months after induction of diabetes, ALZET pumps (obtained from DURECT Corporation, ALZET Osmotic Pumps, P.O. Box 530, Cupertino, Calif.; Model 1007D) filled with CRRL-094 ISP-NP in saline (dose=1 pmol/kg/minute) or saline as control were serially implanted subcutaneously every 14 days over the course of one month. After four weeks of treatment, blood glucose levels, plasma insulin levels, body weight, plasma and urine cGMP levels, and left ventricular hypertrophy were measured. Blood glucose levels and body weight also were measured after two weeks of treatment.

Experiment [3] relates to diabetic rats (streptozotocin). Nature of the experiment: CRRL-090 ISP chronic subcutaneous pump treatment of streptozotocin diabetic rats. Format: in vivo, male Wistar rats. On the procedure: CRRL-090 ISP was synthesized by direct protein synthesis and tested for biological activity in diabetic rats as follows. Three groups of male Wistar rats (six rats per group) were used: normal control group, diabetic control group, and diabetic group treated with CRRL-090 ISP. One dose of streptozotocin was administered intraperitoneally to induce diabetes in the rats of the diabetic control group and diabetic group treated with CRRL-090 ISP. Two months after induction of diabetes, ALZET pumps (obtained from DURECT Corporation, ALZET Osmotic Pumps, P.O. Box 530, Cupertino, Calif.; Model 1007D) configured to release 0.1 μg/kg/minute of CRRL-090 ISP or saline as control were serially implanted subcutaneously every 14 days over the course of one month (2 pumps, one on day 0 and another on day 14). Cardiac function was assessed by echocardiography, neurohormones were measured by radioimmunoassays. Fibrosis was determined by picrosirius red staining.

Experiment [4] concerns normal rats. Nature of the experiment: CRRL-090 ISP intravenous infusion in normal rats: blood glucose and plasma insulin. It counts as in vivo, rat. The note with it: 1 pmol/kg/minute for 210 minutes intravenous infusion. As to the method:
CRRL-090 ISP was synthesized by direct protein synthesis and tested for biological activity in normal rats as follows. Two groups of normal rats were used. The first group included five normal rats, which were administered normal saline. The second group included seven normal rats, which were administered CRRL-090 (1 pmol/kg/minute for 210 minutes). Both administrations were via intravenous infusion.

In experiment [5] the test system is normal rats. Nature of the experiment: Chimeric polypeptide infusion in normal rats: blood glucose and plasma insulin. It counts as in vivo, rat. The conditions noted are these: IV infusion 1 pmol/kg/minute for 210 minutes.
Where [6] appears, read: after four weeks, compared to diabetic rats treated with saline (FIG. 19).

No end group written: not given here.

For “HGEGT-FTSDSEAFIWLGRRMDRIGLSKGCFGLKLDRIGSMSGLGCKVLRRH (HGEGTFTSDSEAFIWLGRRMDRIGLSKGCFGLKLDRIGSMSGLGCKVLRRH) [CRRL-094 ISP-NP]”, in the experiment on normal dogs, the plasma insulin entry is “increase in plasma insulin”, the plasma glucose entry is listed as “reduction in plasma glucose” and the “plasma cGMP” value is given as “increase”. Also, in experiment [1], the “activation of GC-A receptors (cGMP levels)” value is “activated both the GC-A and GC-B receptors”. The “activation of GC-B receptors (cGMP levels)” value in experiment [2] is “activated both the GC-A and GC-B receptors”. For the same substance, the plasma insulin result in the experiment on diabetic rats (after four weeks, compared to diabetic rats treated with saline (FIG. 17)) is listed as “increased plasma insulin”. Further, in the experiment on diabetic rats (setting [6]), the “plasma cGMP” value was “increased plasma and urine cGMP”; the “urine cGMP” value is “increased plasma and urine cGMP”. The “left ventricular hypertrophy (Left Ventricular Mass, LVMd)” value in the experiment on diabetic rats (after four weeks, compared to diabetic rats treated with saline (FIG. 20)) was “reduced left ventricular hypertrophy”. Moreover, the blood glucose entry in the experiment on diabetic rats (four weeks, compared to diabetic rats treated with saline (FIG. 16)) is recorded as “reduced blood glucose”. Further, the body weight entry with diabetic rats (four weeks, compared to diabetic rats treated with saline (FIG. 18)) is given as “reduced body weight”.

As to “HGEGTFTSDSEAFIWLGR-amide (HGEGTFTSDSEAFIWLGR-NH2) [CRRL-090 ISP]”, the blood glucose levels entry in experiment [3] (ALZET pumps subcutaneously 0.1 μg/kg/minute for one month starting two months after streptozotocin, compared to diabetic controls (FIG. 3)) was “reduced blood glucose levels”; with normal rats [4] (compared to control rats that received saline (FIG. 1)), “lower blood glucose levels”. Besides, the plasma insulin levels entry in experiment [3] (ALZET pumps subcutaneously 0.1 μg/kg/minute for one month, three months after streptozotocin, compared to diabetic controls (FIG. 4)) was “increased plasma insulin levels”. In addition, the “glomerular filtration rate (GFR)” value in experiment [3] (ALZET pumps subcutaneously 0.1 μg/kg/minute for one month, three months after streptozotocin, compared to diabetic controls (FIG. 5)) was “increased glomerular filtration rate”. For the same substance, in experiment [3] (ALZET pumps subcutaneously 0.1 μg/kg/minute for one month, three months after streptozotocin, compared to diabetic controls (FIG. 6)), the “left ventricular hypertrophy (LV/BW ratio)” value is “less left ventricular hypertrophy”. In addition, in the experiment on normal rats [4] (compared to control rats that received saline (FIG. 2)), the plasma insulin result was “increased plasma insulin”.

On to “SPKMVQG-SGCFGRKMDRISSSSGLGCKVLRRHGEGTFTSDSEAFIWLGR [CRRL-092 ISP-NP]”, for which, in the experiment with normal dogs, the plasma insulin entry is listed as “increase in plasma insulin”, the plasma glucose entry is “reduction in plasma glucose” and the “plasma cGMP” value was “increase”. For the same substance, in experiment [1], the “activation of GC-A receptors (cGMP levels)” value is on record as “activated the GC-A receptors”. In addition, the plasma insulin entry in the experiment with normal rats [5] (compared to placebo control rats (FIGS. 10, 12)) is on record as “increased plasma insulin”. The blood glucose entry in the experiment on normal rats [5] (compared to placebo control rats (FIGS. 11, 13)) was “lower blood glucose”. Further, the “activation of GC-B receptors (cGMP levels)” value in experiment [2] was “but not the GC-B receptors”.
